In patent publication US20120156139A1, “ISOTOPICALLY LABELED NEUROCHEMICAL AGENTS AND USES THEROF FOR DIAGNOSING CONDITIONS AND DISORDERS” (priority 2009, published 2012):

Tests used:
Assay type in all cases: physicochemical
[1] = 13C T1 inversion recovery studies of L-DOPA, dopamine and partially deuterated dopamine; conditions: for T1 of C1 / T1 of C2 / T1 of C3: 13C at natural abundance, inversion recovery, 500 MHz scanner; for Elongation factor, T1 of C1 / Elongation factor, T1 of C2 / Elongation factor, T1 of C3: relative to dopamine HCl (A)
Procedure: Inversion recovery studies were carried out on protonated L-DOPA and dopamine and partially deuterated dopamine a in order to determine the ^13C T1 relaxation times in these molecules. The inversion recovery studies were carried out on a 500 MHz scanner (Varian), equipped with a 5 mm double tuned ^13C/^1H probe. Carbon-13 signals were detected in these molecules at natural abundance. The number of transitions ranged between 300 to 400 per relaxation delay (t) with a total scanning time of 12 to 48 hours. Dopamine HCl and L-DOPA were obtained from Sigma-Aldrich (Israel). [1,1,2,2-D4]-Dopamine HCl, and [D3-ring, 2,2-D2]-Dopamine were obtained from Cambridge Isotope Laboratories (MA, USA).

[2] = 13C T1 inversion recovery studies of choline and deuterated cholines at 11.8 T; conditions: for Elongation factor, T1 of C1 / Elongation factor, T1 of C2: relative to choline Cl- (A)
Procedure: The data in Table 2 were obtained using a series of inversion recovery studies at 11.8 T which were carried out in order to determine the ^13C T1 relaxation times of a deuterated choline molecule and of a partially deuterated choline molecule [1,1,2,2-D4]-choline Cr. The T1 of the trimethyl amine position in the fully deuterated choline molecule was 28 sec, which represented an approximate 8 fold elongation factor compared to the native choline molecule in which the trimethyl amine positions are protonated. Inversion recovery studies were carried out on a 500 MHz scanner (Varian), equipped with a 5 mm double tuned ^13C/^1H probe. Carbon-13 signals were detected in these molecules at natural abundance. The number of transitions ranged between 300 to 400 per relaxation delay (r) with a total scanning time of 12 to 67 hours due to a relaxation delay of 130 sec. The data were fitted to the standard inversion recovery equation. The possible effect of concentration on T1 was investigated in a concentration range of 20 mM to […], no significant effect of concentration on T1 was found in this concentration range. Choline Cl^− and [1,1,2,2-D4]-Choline CU were obtained from Sigma-Aldrich (Israel). Choline-D13 Br^− (fully deuterated) was obtained from Cambridge Isotope Laboratories (MA, USA).

[3] = T1 values of additional deuterated compounds
[4] = T1 of position 2 in [1,1,2,2-D4,2-13C]-choline at various magnetic field strengths and temperatures; conditions: for Liquid state T1 of position 2: DNP-enhanced liquid state sample, 14.1 T
Procedure: The T1 of position 2 in [1,1,2,2-D4,2-^13C]-choline was further investigated at various magnetic field strengths and temperatures. The liquid state T1 was measured on a DNP-enhanced liquid state sample at 14.1 T at approx. 37° C. (T1=48±2 sec) and at higher temperatures of between about 40 to about 50° C. (T1=56±4 sec).
In addition, thermal equilibrium T1 measurement was performed at 9.4 T at 37° C. (T1=41 sec). The low field T1 of [1,1,2,2-D4,2-^13C]-choline was estimated by placing the enhanced sample in the fringe field of an unshielded 14.1 T magnet (n=2). From this experiment it was concluded that the low field T1 is long (>40 s) and that the T1 of the deuterated methylene carbon in choline is less affected by field strength.

[5] = 13C at natural abundance, inversion recovery, 11.8 T

| T1 of C1 [1] | T1 of C2 [1] | T1 of C3 [1] | T1 of C1 [2, 5] | T1 of C2 [2, 5] | Structure (SMILES) | further results |
| --- | --- | --- | --- | --- | --- | --- |
| 8.7 s | 9.3 s | 6.3 s | – | – | Cl.[2H]C([2H])(N)C([2H])([2H])c1ccc(O)c(O)c1 [[1,1,2,2-D4]-dopamine HCl] | Elongation factor, T1 of C1 [1]: 7.9; Elongation factor, T1 of C2 [1]: 9.3; Elongation factor, T1 of C3 [1]: 1.0 |
| – | – | – | 5.2 s | 4.9 s | C[N+](C)(C)CCO.[Cl-] [choline Cl^−] | – |
| 2.3 s | 2.3 s | 3.9 s | – | – | N[C@@H](Cc1ccc(O)c(O)c1)C(=O)O [L-DOPA (non deuterated), L-DOPA] | – |
| – | – | – | 32.0 s | 32.9 s | [2H]C([2H])(O)C([2H])([2H])[N+](C([2H])([2H])[2H])(C([2H])([2H])[2H])C([2H])([2H])[2H].[Br-] [[D13]-choline Br^−] | T1 of the trimethyl amine position [2, 5]: 28 s; Elongation factor of T1 of the trimethyl amine position ([2]; compared to the native choline molecule with protonated trimethyl amine positions): ~8 fold; Elongation factor, T1 of C1 ([2]; 11.8 T): 6.2; Elongation factor, T1 of C2 ([2]; 11.8 T): 6.7 |
| – | – | – | 29.1 s | 34.9 s | [2H]C([2H])(O)C([2H])([2H])[N+](C)(C)C.[Cl-] [[1,1,2,2-D4]-choline Cl^−] | Elongation factor, T1 of C1 ([2]; 11.8 T): 5.6; Elongation factor, T1 of C2 ([2]; 11.8 T): 7.1 |
| – | – | – | – | – | [2H]C([2H])(NC(=N)N)C([2H])([2H])C([2H])([2H])[C@]([2H])(N)C(=O)O [[2,3,3,4,4,5,5-D7]-arginine, [2,3,3,4,4,5,5-D7]-arginine: NH2C(NH)NHCD2CD2CD2CD(NH2)CO2H] | T1 of carbons at positions 2, 3, 4, and 5 [3]: ~8 s |
| – | – | – | – | – | [2H]c1c([2H])c([2H])c2c(C([2H])([2H])[C@]([2H])(N)C(=O)O)c[nH]c2c1[2H] [[D7]-L-tryptophan, [D7]-L-tryptophan: C6D4C(CD2-CD(NH2)COOH)CH—NH] | T1 of position 10 ([3]; dissolved in H2O and 15% D2O (54.5 mM), 11.8 T): ~13 s |
| 1.0 s | 4.4 s | 5.4 s | – | – | Cl.[2H]c1c([2H])c(C([2H])([2H])CN)c([2H])c(O)c1O [[D3 ring,2,2-D2]-dopamine HCl] | Elongation factor, T1 of C1 [1]: 1.0; Elongation factor, T1 of C2 [1]: 4.4; Elongation factor, T1 of C3 [1]: 0.8 |
| – | – | – | – | – | [2H]C([2H])(O)[13C]([2H])([2H])[N+](C)(C)C [[1,1,2,2-D4,2-^13C]-choline] | Thermal equilibrium T1 ([4]; 9.4 T, 37 °C): 41 s; Liquid state T1 of position 2 ([4]; about 40 to about 50 °C): 56 ± 4 s; Liquid state T1 of position 2 ([4]; approx. 37 °C): 48 ± 2 s; Low field T1 ([4]; enhanced sample in the fringe field of an unshielded 14.1 T magnet, n=2, estimated): > 40 s |

| Structure (SMILES) | T1 of C1 [1] | T1 of C2 [1] | T1 of C3 [1] | T1 of C1 [2, 5] | T1 of C2 [2, 5] | further results |
| --- | --- | --- | --- | --- | --- | --- |
| Cl.NCCc1ccc(O)c(O)c1 [dopamine HCl] | 1.1 s | 1.0 s | 6.4 s | – | – | – |
